Source: the supplement of paper PMC10307832

Legend:
Experiment in all cases: relative viability (nuclei count vs DMSO), 5 days (fraction); higher = more cells survive
Foretinib = compound: COc1cc2c(Oc3ccc(NC(=O)C4(C(=O)Nc5ccc(F)cc5)CC4)cc3F)ccnc2cc1OCCCN1CCOCC1 [Foretinib] (anchor plate); conditions: 0.25 µM
In short: (§1)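 Viability was read as treated-well nuclei divided by vehicle-well nuclei, using the median across plates. Lung cancer cell lines in 1536-well plates were kept overnight at 37 °C, pinned with five √10-spaced library-drug doses, and after 5 days were Hoechst-stained, imaged at 4× and counted in MetaXpress. Plates passed only with control CV below 25% and at least one doubling.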

[1] = compound: O=S(=O)(c1ccccc1)N(CC(F)(F)F)c1ccc(C(O)(C(F)(F)F)C(F)(F)F)cc1
In short: as §1

RO-3306 + Palbociclib = compound: C1=CC2=C(C=CC(=C2)C=C3C(=O)NC(=NCC4=CC=CS4)S3)N=C1 [RO-3306] + CC(=O)c1c(C)c2cnc(Nc3ccc(N4CCNCC4)cn3)nc2n(C2CCCC2)c1=O [Palbociclib] (partner 0.5 µM)
In short: (§2)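 Relative viability was taken as the ratio of nuclei in treated wells to nuclei in vehicle wells. Lung cancer cell lines in 1536-well plates received compounds by pin tool one day after seeding, either one drug alone or a fixed anchor-drug dose plus five library-drug doses (not always all listed) in √10 steps. Nuclei were counted on 4× images after 5 days of treatment, and values are medians of duplicate plates.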

RO-3306 + Dasatinib = compound: C1=CC2=C(C=CC(=C2)C=C3C(=O)NC(=NCC4=CC=CS4)S3)N=C1 [RO-3306] + Cc1nc(Nc2ncc(C(=O)Nc3c(C)cccc3Cl)s2)cc(N2CCN(CCO)CC2)n1 [Dasatinib] (partner 0.075 µM)
In short: as §2

[2] = compound: O=S(=O)(c1ccccc1)N(CC(F)(F)F)c1ccc(C(O)(C(F)(F)F)C(F)(F)F)cc1 + CC1(C)CCC(c2ccc(Cl)cc2)=C(CN2CCN(c3ccc(C(=O)NS(=O)(=O)c4ccc(N[C@H](CCN5CCOCC5)CSc5ccccc5)c(S(=O)(=O)C(F)(F)F)c4)cc3)CC2)C1 [Navitoclax] (partner 0.5 µM)
In short: as §2

Cell Line | relative viability (Foretinib) | relative viability ([1]; 0.8 µM) | relative viability ([1]; 2.53 µM) | relative viability ([1]; 8 µM) | relative viability (RO-3306 + Palbociclib; first compound 0.01 µM) | relative viability (RO-3306 + Palbociclib; first compound 0.03162 µM) | relative viability (RO-3306 + Palbociclib; first compound 0.1 µM) | relative viability (RO-3306 + Palbociclib; first compound 0.3162 µM) | relative viability (RO-3306 + Palbociclib; first compound 1 µM) | relative viability (RO-3306 + Dasatinib; first compound 0.01 µM) | relative viability (RO-3306 + Dasatinib; first compound 0.03162 µM) | relative viability (RO-3306 + Dasatinib; first compound 0.1 µM) | relative viability (RO-3306 + Dasatinib; first compound 0.3162 µM) | relative viability (RO-3306 + Dasatinib; first compound 1 µM) | relative viability ([2]; first compound 0.8 µM) | relative viability ([2]; first compound 2.53 µM) | relative viability ([2]; first compound 8 µM)
NCI-H647 | 1.17 | 1.14 | 0.849 | 0.877 | 0.486 | 0.325 | 0.355 | 0.474 | 0.446 | 0.155 | 0.117 | 0.18 | 0.226 | 0.129 | 1.3 | 1.26 | 1.01
NCI-H1993 | 0.782 | 0.987 | 0.831 | 0.711 | 0.636 | 0.633 | 0.611 | 0.552 | 0.583 | 0.754 | 0.49 | 0.695 | 0.586 | 0.523 | 0.867 | 0.691 | 0.788
COR-L23 | 0.949 | 1.13 | 0.921 | 0.858 | 0.286 | 0.252 | 0.293 | 0.297 | 0.257 | 0.477 | 0.392 | 0.48 | 0.642 | 0.374 | 1.14 | 1.03 | 0.913
NCI-H1915 | 1.1 | 1.06 | 0.98 | 1.08 | 0.54 | 0.523 | 0.518 | 0.539 | 0.538 | 0.341 | 0.312 | 0.288 | 0.329 | 0.253 | 0.881 | 0.81 | 0.786
NCI-H727 | 0.892 | 1.08 | 0.702 | 0.898 | 0.623 | 0.613 | 0.552 | 0.557 | 0.604 | 0.346 |  | 0.413 | 0.402 | 0.523 | 0.387 | 0.407 | 0.507
LC-2-ad | 0.973 | 0.992 | 0.936 | 0.892 | 0.504 | 0.399 | 0.512 | 0.515 | 0.483 | 0.57 | 0.311 | 0.582 | 0.533 | 0.507 | 0.531 | 0.544 | 0.518
NCI-H2009 | 1.22 | 0.977 | 0.862 | 0.891 | 0.216 | 0.203 | 0.18 | 0.25 | 0.203 | 0.279 | 0.267 | 0.265 | 0.293 | 0.277 | 0.965 | 1 | 0.938
A-427 | 1.08 | 1.08 | 0.929 | 1.21 | 0.502 | 0.513 | 0.545 | 0.57 | 0.516 | 0.739 | 0.565 | 0.644 | 0.631 | 0.551 | 1.01 | 0.886 | 1.01
SK-MES-1 | 0.965 | 1.11 | 0.973 | 0.936 | 0.355 | 0.305 | 0.352 | 0.289 | 0.272 | 0.341 | 0.44 | 0.344 | 0.379 | 0.348 | 1.42 | 1.33 | 1.21
NCI-H1734 | 0.84 | 1.21 | 1.01 | 0.887 | 0.39 | 0.321 | 0.333 | 0.429 | 0.34 | 0.442 | 0.476 | 0.444 | 0.473 | 0.443 | 1.14 | 0.809 | 0.801
LOU-NH91 | 0.94 | 0.984 | 0.968 | 1.05 | 0.538 | 0.547 | 0.542 | 0.526 | 0.53 | 0.617 | 0.496 | 0.513 | 0.57 | 0.5 | 0.73 | 0.666 | 0.717
NCI-H1651 | 0.763 | 1.05 | 0.965 | 0.944 | 0.542 | 0.456 | 0.505 | 0.538 | 0.496 | 0.383 | 0.329 | 0.382 | 0.418 | 0.354 | 1.15 | 0.939 | 1.02
NCI-H23 | 0.969 | 1.09 | 1.07 | 1.15 | 0.513 |  | 0.46 | 0.472 | 0.454 | 0.679 | 0.595 | 0.932 | 0.75 | 0.657 | 1.11 | 0.804 | 0.817
NCI-H322M | 1.01 | 1.08 | 0.966 | 0.866 | 0.472 | 0.469 | 0.502 | 0.433 | 0.478 | 0.252 | 0.259 | 0.257 | 0.255 | 0.244 | 1.29 | 1.12 | 1.2
UMC-11 | 1.03 | 1.06 | 0.985 | 1.11 | 0.305 | 0.319 | 0.297 | 0.309 | 0.277 | 0.553 | 0.341 | 0.432 | 0.546 | 0.453 | 0.335 | 0.352 | 0.37
NCI-H2228 | 0.886 | 1.08 | 0.962 | 0.937 | 0.753 | 0.404 | 0.622 | 0.771 | 0.433 | 0.569 | 0.435 | 0.47 | 0.562 | 0.453 | 0.839 | 0.89 | 0.713
EMC-BAC-2 | 1.02 | 0.996 | 1.01 | 0.966 | 0.501 | 0.461 | 0.514 | 0.516 | 0.494 | 0.337 | 0.522 | 0.329 | 0.326 | 0.304 | 1.25 | 1.21 | 1.13
NCI-H2085 | 1.01 | 0.967 | 0.908 | 0.929 | 0.448 | 0.48 | 0.506 | 0.446 | 0.471 | 0.212 | 0.221 | 0.225 | 0.265 | 0.237 | 1.14 | 1 | 1.03
